Paper PMC10578347 (Journal of Medicinal Chemistry, 2023)
“Also recorded” adds a separate entry of the source.

Tests used:
[1] = test system: TH, VMAT2, SOD1/2 mRNA expression in N27 rat dopaminergic neural cells; assay type: cell-based
[2] = biological target: Nurr1 LBD; conditions: cited from earlier work
[3] = biological target: Nurr1 LBD (Homo sapiens, UniProt P43354); assay: Isothermal titration calorimetry; assay type: binding; conditions: ITC, 25 °C, recombinant Nurr1 LBD
[4] = test system: HEK293T cells; assay: WST-8 cytotoxicity assay; assay type: cell-based; conditions: stable Renilla luciferase activity and WST-8 assay; 100 μM
[5] = biological target: Nur77 (NR4A1) (Homo sapiens, UniProt P22736); assay type: cell-based
[6] = biological target: T1, NOR-1 (NR4A3) (Homo sapiens, UniProt Q92570); assay type: cell-based
T1 sequence (Q92570 394-623 limits assumed): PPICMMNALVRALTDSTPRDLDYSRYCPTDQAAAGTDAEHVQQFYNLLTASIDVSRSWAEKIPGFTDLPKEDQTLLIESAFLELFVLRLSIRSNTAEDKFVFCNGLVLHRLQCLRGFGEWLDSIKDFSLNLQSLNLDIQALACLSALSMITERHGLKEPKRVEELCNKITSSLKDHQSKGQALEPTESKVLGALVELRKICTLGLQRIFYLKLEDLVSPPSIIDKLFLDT

[7] = test system: nuclear receptors outside the NR4A family (THRα, RARα, PPARγ, revERBα, RORγ, VDR, LXRα, FXR, RXRα); assay type: cell-based
[8] = Glutathione reactivity assay; assay type: physicochemical; conditions: 125 μM compound, 2.5 mM GSH in PBS at 37 °C, up to 24 h
[9] = test system: TH and VMAT2 mRNA expression in T98G cells; assay type: cell-based, human

Sequence of Nur77 (NR4A1) (P22736 360-595 limits assumed, species assumed): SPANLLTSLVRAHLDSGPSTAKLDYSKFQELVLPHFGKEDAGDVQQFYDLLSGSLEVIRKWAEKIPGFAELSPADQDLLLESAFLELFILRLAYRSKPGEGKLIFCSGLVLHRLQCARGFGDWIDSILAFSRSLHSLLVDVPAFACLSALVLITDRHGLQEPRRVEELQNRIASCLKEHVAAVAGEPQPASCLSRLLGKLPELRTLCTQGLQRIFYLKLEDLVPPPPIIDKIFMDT
Sequence of Nurr1 LBD (Homo sapiens, UniProt P43354) (P43354 360-598): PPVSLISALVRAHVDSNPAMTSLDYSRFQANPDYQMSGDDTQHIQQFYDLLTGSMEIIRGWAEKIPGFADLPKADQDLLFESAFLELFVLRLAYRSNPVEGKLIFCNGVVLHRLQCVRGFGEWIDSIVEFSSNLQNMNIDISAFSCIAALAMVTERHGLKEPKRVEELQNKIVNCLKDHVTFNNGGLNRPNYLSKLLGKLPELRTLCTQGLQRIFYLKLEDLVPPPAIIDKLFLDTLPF

| Structure (SMILES) | TH, VMAT, SOD1/2 expression [1] | Kd [3] | effect on cell viability [4] | further results |
| --- | --- | --- | --- | --- |
| Clc1ccc2[nH]ccc2c1 [2b, 5-chloro-1H-indole] | induced | – | – | Kd [2]: 15 µM |
| CC(C)N1CCC(NC(=O)c2cc3[nH]ccc3cc2Cl)CC1 [5e] | – | no detectable interaction; also recorded: no binding^c | no pronounced effect on cell viability | – |
| CC1CCN(CCCNC(=O)c2cc3[nH]ccc3cc2Cl)CC1 [5m] | – | no detectable interaction; also recorded: no binding^c | no pronounced effect on cell viability | – |
| CN(C)CCOc1ccc(Cl)cc1NC(=O)c1cc2[nH]ccc2cc1Cl [5o, 5-Chloro-N-{5-chloro-2-[2-(dimethylamino)ethoxy]phenyl}-1H-indole-6-carboxamide] | induced | – | no pronounced effect on cell viability | activity on Nur77 (NR4A1) [5]: preference for Nurr1 over the related NR4A receptors; also recorded: preference of 5o for Nurr1 over Nur77; activity on NOR-1 (NR4A3) [6]: preference for Nurr1 over the related NR4A receptors; also recorded: no NOR-1 (NR4A3) activation; modulation of nuclear receptors outside the NR4A family [7]: did not modulate; also recorded: No nuclear receptor modulation; stability against reaction with glutathione (GSH) [8]: stable; also recorded: High stability; Nurr1-regulated mRNA expression of TH and VMAT2 [9]: induced |
| O=C(NCCN1CCC2CCCCC2C1)c1cc2[nH]ccc2cc1Cl (centres unmarked) [5r] | – | – | no pronounced effect on cell viability | – |
| CCN(CC)C1CCC(NC(=O)c2cc3[nH]ccc3cc2Cl)CC1 (centres unmarked) [5t] | – | no detectable interaction; also recorded: no binding^c | no pronounced effect on cell viability | – |
| CCCCN1CCC(CNC(=O)c2cc3[nH]ccc3cc2Cl)C1 (centres unmarked) [5v] | – | – | no pronounced effect on cell viability | – |
| Oc1cc2cc[nH]c2cc1O [DHI (2a), 5,6-dihydroxyindole] | generally weaker effects | – | – | TH expression [1]: downregulated |
| CN(C)CCOc1ccc(Cl)cc1Nc1ccnc2cc(Cl)ccc12 [compound 13, 7-Chloro-N-{5-chloro-2-[2-(dimethylamino)ethoxy]phenyl}quinolin-4-amine] | induced | – | – | activity on Nur77 (NR4A1) [5]: activated Nurr1 and Nur77 with equal potency; activity on NOR-1 (NR4A3) [6]: preference over NOR-1; also recorded: less active on NOR-1; modulation of nuclear receptors outside the NR4A family [7]: did not modulate; also recorded: No nuclear receptor modulation |
